From patent US9162992B2, “Compounds and compositions for treatment of breathing control disorders or diseases” (GALLEON PHARMACEUTICALS, INC., priority 2010, dated 2015)
Where “and” joins values, the source holds several entries; their conditions need not be identical. Equal values may be shown once. Where a name gives a salt, the structure may show the parent alone. Each block holds one molecule with its values, some of them ahead of it.

Experiments:
[1] = GMP drug product stability of final formulation (25° C./60% RH and 2-8° C.), degradant CLXXVIII; type: physicochemical
From the text: A batch of (XXXVI) formulated for clinical use was placed under formal GMP stability (Tables 20I.1 and […]).

[2] = molecular target: T1, BK potassium channel expressed in GH3 cells (Rattus norvegicus, UniProt Q62976); test: BK potassium channel current in GH3 cells, inside-out patches; type: cell-based; settings: Almirite 1 (mM as printed)
T1 construct: endogenous in cells; host or cells: GH3 cells
T1 sequence (Q62976 whole entry): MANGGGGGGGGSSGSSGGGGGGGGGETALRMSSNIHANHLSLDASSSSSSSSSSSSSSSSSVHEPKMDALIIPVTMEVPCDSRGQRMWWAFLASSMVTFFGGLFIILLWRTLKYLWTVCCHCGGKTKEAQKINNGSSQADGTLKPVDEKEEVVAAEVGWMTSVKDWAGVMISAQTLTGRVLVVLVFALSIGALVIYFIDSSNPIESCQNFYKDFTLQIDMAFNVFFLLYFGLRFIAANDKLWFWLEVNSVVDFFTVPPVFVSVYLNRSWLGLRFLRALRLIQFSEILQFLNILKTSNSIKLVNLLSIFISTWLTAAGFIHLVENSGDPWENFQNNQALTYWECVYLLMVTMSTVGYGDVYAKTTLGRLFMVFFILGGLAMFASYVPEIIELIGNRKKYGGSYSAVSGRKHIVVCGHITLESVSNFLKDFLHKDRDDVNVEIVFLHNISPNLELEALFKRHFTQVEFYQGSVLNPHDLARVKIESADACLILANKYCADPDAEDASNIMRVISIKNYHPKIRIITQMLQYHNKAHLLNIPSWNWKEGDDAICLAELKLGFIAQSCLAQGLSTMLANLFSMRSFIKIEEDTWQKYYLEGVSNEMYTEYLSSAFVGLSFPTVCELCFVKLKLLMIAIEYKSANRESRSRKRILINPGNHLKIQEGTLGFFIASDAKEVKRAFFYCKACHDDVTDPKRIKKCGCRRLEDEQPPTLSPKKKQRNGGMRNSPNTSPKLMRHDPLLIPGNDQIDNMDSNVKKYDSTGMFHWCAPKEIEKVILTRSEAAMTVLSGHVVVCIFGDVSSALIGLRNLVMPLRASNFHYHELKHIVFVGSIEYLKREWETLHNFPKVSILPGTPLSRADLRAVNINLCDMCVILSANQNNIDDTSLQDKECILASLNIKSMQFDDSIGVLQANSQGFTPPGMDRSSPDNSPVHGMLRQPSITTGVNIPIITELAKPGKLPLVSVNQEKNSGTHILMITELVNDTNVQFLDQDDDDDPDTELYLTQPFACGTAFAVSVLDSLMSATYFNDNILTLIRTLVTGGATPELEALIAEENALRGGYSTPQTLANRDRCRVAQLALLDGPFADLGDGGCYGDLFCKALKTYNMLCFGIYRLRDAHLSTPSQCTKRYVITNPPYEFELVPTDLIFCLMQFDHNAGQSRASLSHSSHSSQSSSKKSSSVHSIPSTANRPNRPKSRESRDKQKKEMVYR
Procedure: Stock solutions of the test article were prepared in dimethylsulfoxide (DMSO) and stored frozen. Test article concentrations were prepared fresh daily by diluting stock solutions into a physiological saline solution (composition in mM): KCl, 125; CaCl2, 8.5; HEPES, 10; EGTA, 11.25; pH adjusted to 7.2 with KOH (prepared weekly and refrigerated until used). All test solutions contained 0.1% DMSO.
GH3 cells were grown in culture using standard procedures. Ionic currents were measured from inside-out patches of GH3 cells. Channel activity was monitored in symmetrical K^+ conditions with a holding potential of −60 mV. Activities before and in the presence of each concentration of test articles were recorded for ≧3 minutes, respectively.
Data acquisition and analyses were performed using the suite of pCLAMP (Ver. 8.2) programs (MDS-AT, Sunnyvale, Calif. Percent inhibition by test article was calculated using the following equation: 100*(NPocontrol−NPotest)/NPocontrol Results

rat KCNK3/TASK-1 = molecular target: T2, rat KCNK3/TASK-1 (Rattus norvegicus, UniProt O54912); test: Thallium flux through rat TASK-1 (KCNK3-CHO cells); type: cell-based; settings: Tl+ flux; 3 nM to 30 μM; read-out: rTASK-1 IC50
T2 construct: expressed in transfected cells; host or cells: CHO cells (tetracycline-inducible)
T2 sequence (O54912 whole entry): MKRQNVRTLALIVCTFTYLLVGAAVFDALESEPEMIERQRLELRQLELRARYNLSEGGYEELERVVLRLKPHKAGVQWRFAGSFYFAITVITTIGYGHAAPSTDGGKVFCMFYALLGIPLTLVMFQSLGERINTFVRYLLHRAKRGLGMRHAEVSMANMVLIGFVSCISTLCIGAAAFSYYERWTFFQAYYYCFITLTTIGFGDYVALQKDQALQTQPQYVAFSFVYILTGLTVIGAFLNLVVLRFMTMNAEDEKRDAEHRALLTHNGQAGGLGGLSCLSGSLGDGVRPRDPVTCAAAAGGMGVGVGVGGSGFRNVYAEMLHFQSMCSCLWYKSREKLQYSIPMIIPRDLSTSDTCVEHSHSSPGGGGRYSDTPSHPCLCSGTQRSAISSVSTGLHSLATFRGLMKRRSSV
Procedure: (§1) CHO cells expressing recombinant tetracycline-inducible rat KCNK3/TASK-1 (KCNK3-CHO cells) were plated in poly-D-lysine coated 384-well plates at a density of 6,000 cells/well (50 μl/well of 120,000 cells/mL) and allowed to incubate for 72 hrs in the presence of 5% CO2 and 1 μg/mL tetracycline at 30° C. HEK cells expressing recombinant tetracycline-inducible human KCNK9/TASK-3 (KCNK9-HEK cells) were plated at a density of 15,000 cells per well (50 μl/well, 300,000 cells/mL) and incubated overnight at 37° C. and 5% CO2 in the presence of 1 μg/mL tetracycline.
(§2) Drug plates were generated from 10 mM 100% DMSO mother plates. Compounds were transferred to 384-well drug plates and titrated with sequential 1:3 dilutions in 100% DMSO for a total of 9 dilutions. A dilution plate is made by taking 2.4 μl from the mother plate and adding to […] of assay buffer for a 12% DMSO dilution plate. From this dilution plate, a final daughter plate is generated by taking 1 μA of the dilution plate and adding to 40 μA of assay buffer for a final DMSO concentration of 0.3%. Each compound was evaluated in duplicate and the concentration range evaluated was 3 nM to 30 μM.
(§3) When thallium was added to extracellular solution with a stimulus to open channels, Tl^+ flowed down its concentration gradient into the cells and channel activity was detected with an indicator dye, FluxOR™, that increased in cytosolic fluorescence. The FluxOR™ indicator dye was loaded into cells as a membrane permeable acetoxymethyl ester. On the day of each assay, FluxOR™ assay buffer was made fresh from Hank's Balanced Saline Solution (HBSS) buffered with 20 mM HEPES and pH adjusted to 7.4 with NaOH. Dye loading solution was prepared per manufacturer's instructions, and 25 μl of dye solution applied to each well with a multidropper after plating medium was removed manually from cells. Dye was allowed to load for 90 minutes at room temperature in the dark.
(§4) After the 90 min dye loading incubation and subsequent manual dye removal, 24 μl of the drug daughter plate was transfer to cell plates by a cybi-well system and then incubated at room temperature for 20 minutes to allow for equilibration within wells. Stimulation buffer was prepared from 5× chloride-free buffer, thallium, and potassium sulfate containing 5 times the desired final assay concentration of 10 mM K^+ 2.8 mM Tl^+. Cell plates were then transferred to an FDSS 6000 kinetic imaging plate reader (Hamamatsu). Fluorescence at 525 nm (excitation 488 nm) was measured for 10 seconds at 1 Hz to establish baseline for the entire plate. After baseline was established, 6 μl/well of stimulation buffer was added and fluorescence signal recorded for another 140 seconds.
(§5) From the fluorescence signals in the absence and presence of Galleon compounds, Inhibitory concentration curves were plotted and IC50 values were estimated using a curve fitting algorithm.

[3] = system: spontaneously breathing rats; test: Minute ventilation (MV) and cardiovascular parameters in naive rats; type: in vivo, rat; design: unit not given here
Procedure: (§6) All surgical procedures were performed under anesthesia induced by 2% isoflurane in compressed medical grade air. With rats in supine position, the right femoral vein was catheterized using polyethylene tubing (PE-50). This catheter was used for fluid and drug administration. Simultaneously, the right femoral artery was also catheterized for monitoring blood pressure and heart rate. In order to measure the respiratory parameters in spontaneously breathing rats, trachea was intubated using 13 gauge tracheal tube (2.5 mm ID, Instech Solomon, Pa.).
After establishing a stable base-line at 1.5% isoflurane, compounds (typically at a dose of 1 mpk) were administered IV, and ventilatory parameters were generated from spontaneously breathing rats, along with cardiovascular output (mean arterial pressure (MAP) and heart rate). Maximum peak minute ventilatory (MV) responses (MPR), along with changes in minute ventilation versus baseline (AMV) were obtained as shown in the tables below.

human KCNK9/TASK-3 = molecular target: T3, human KCNK9/TASK-3 (Homo sapiens, UniProt Q9NPC2); test: Thallium flux through human TASK-3 (KCNK9-HEK cells); type: cell-based; settings: Tl+ flux; 3 nM to 30 μM; read-out: hTASK-3 IC50
T3 construct: expressed in transfected cells; host or cells: HEK cells (tetracycline-inducible)
T3 sequence (Q9NPC2 whole entry): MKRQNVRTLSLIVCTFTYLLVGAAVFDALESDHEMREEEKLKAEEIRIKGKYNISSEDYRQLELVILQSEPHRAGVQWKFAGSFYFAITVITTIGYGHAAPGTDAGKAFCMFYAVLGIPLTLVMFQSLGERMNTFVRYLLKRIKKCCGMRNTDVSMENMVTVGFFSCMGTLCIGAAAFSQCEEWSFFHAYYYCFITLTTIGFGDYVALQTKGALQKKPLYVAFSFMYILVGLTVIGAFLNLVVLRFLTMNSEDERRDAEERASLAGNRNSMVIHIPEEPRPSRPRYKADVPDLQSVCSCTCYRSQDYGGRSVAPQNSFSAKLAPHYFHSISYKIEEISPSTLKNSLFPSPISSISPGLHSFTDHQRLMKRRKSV
Procedure: as §1, §2, §3, §4, §5

[4] = system: spontaneously breathing rats; test: Dose-dependent effect on minute ventilation (MV) in naive rats; type: in vivo, rat; settings: 1.5% isoflurane; for minute ventilation, dose dependence: cumulative IV doses
Procedure: as §6, with “pressure.” for “pressure and heart rate.”
After establishing a stable base-line at 1.5% isoflurane, cumulative dose-dependent (0.01, 0.03, 0.1, 0.3, 1, 3, 10 mg/kg) ventilatory responses to compounds (XXXVI) and (L), labeled as cmpd (A) and cmpd (B) respectively, were generated from spontaneously breathing rats. Maximum peak minute ventilatory (MV) values at each dose of corresponding drug were calculated and used for generating ED50 values.

[5] = system: morphine-induced respiratory depression; test: Effects of morphine and compound on arterial blood gases in the rat; type: in vivo; settings: opioid-treated rat
Procedure: Rats with pre-cannulated jugular vein and femoral arterial catheters (for administering drugs and obtaining blood samples respectively) were obtained from Harlan laboratories and kept at the animal facility at Galleon Pharmaceuticals until the experimental procedures. Each animal was dosed with morphine sulfate (10 mg/kg), dissolved in saline at a concentration of 10 mg/mL, via injection into the jugular vein over a period of 20 seconds with a 20 second flush of 0.9% NaCl saline. Prior to morphine administration, two 250 μL samples of arterial blood were aspirated from the femoral artery into a pre-heparinized syringe. The samples were analyzed on Radiometer's ABL Flex 800, where pO2, pCO2, pH, SaO2 and other parameters were recorded. Aspirated volumes of arterial blood were replaced by room temperature sterile saline (˜300 μL) slowly flushed back into the femoral arterial catheter of the rodent to prevent hypovolemia. Morphine was then administered and 2 minutes later another blood sample was taken.
The infusion started at t=15 minutes and ended at t=35 minutes. Arterial blood gas analysis occurred at time points t=12, 18, 25, 35, 40, 45, and 50 minutes.

[6] = Solubility in solvents and IV solutions; type: physicochemical; settings: water, thermodynamic from solid, Solubility
Procedure: The solubility of (XXXXVI) and XXXV was evaluated in various solvents and IV solutions. Due to limits on the API supply at the time the study was conducted, most of the solvent systems were evaluated to a level of only 100 mg/mL even if the solution was not saturated at this level. Only in water was an attempt made to reach saturation solubility, regardless of how high that solubility might be. Solubility of the salt/free base in each solvent was evaluated in duplicate.
For solubility in water, drug was added with intermittent shaking to ensure that excess undissolved drug is present indicating saturation […]. The filtrates were diluted appropriately and analyzed for (XXXV) concentration by HPLC.

[7] = Table 8, 1 mpk, 20% HPβCD, pH 4

- Level of Degradant (CLXXVIII) in GMP lot# 041I0511 ([1]; 5° C., amb. RH, Inverted, T = 1 month): 0.03%
- Level of Degradant (CLXXVIII) in GMP lot# 041I0511 ([1]; 5° C., amb. RH, Inverted, T = 3 month): 0.06%
- Level of Degradant (CLXXVIII) in GMP lot# 041I0511 ([1]; 5° C., amb. RH, Inverted, T = 6 month): 0.08%
- Level of Degradant (CLXXVIII) in GMP lot# 041I0511 ([1]; 5° C., amb. RH, Inverted, T = 9 month): 0.11%
- Level of Degradant (CLXXVIII) in GMP lot# 041I0511 ([1]; 5° C., amb. RH, Upright, T = 6 month): 0.08%
- Level of Degradant (CLXXVIII) in GMP lot# 041I0511 ([1]; Release Testing, Drug Product Production lot Sample Pull Beg.): 0.00%
- Level of Degradant (CLXXVIII) in GMP lot# 041I0511 ([1]; Release Testing, Drug Product Production lot Sample Pull End): 0.00%
- Level of Degradant (CLXXVIII) in GMP lot# 041I0511 ([1]; Release Testing, Drug Product Production lot Sample Pull Mid.): 0.00%
Structure (SMILES): CCCNc1nc(O)nc(NCCC)n1 [(CLXXVIII)]

- Inhibition (%), Average [2]: 94.7%
- NPo, Average [2]: 0.0010
- Inhibition (%) ([2]; single patch): 97.9% and 91.5%
- NPo (total channel open probability) ([2]; single patch): 0.0009 and 0.0011
Structure (SMILES): C=CCNc1nc(NCC=C)nc(N2CCN(C(c3ccc(F)cc3)c3ccc(F)cc3)CC2)n1 [Almirite, almitrine, reference compound]

Structure (SMILES): CCCNc1nc(NN(C)C)c2ccn(C)c2n1 [CLXX, N,N-Dimethyl-N′-(2-n-propylamino-7-methyl-pyrrolo[2,3d]pyrimidin-4-yl)-hydrazine]
- IC50 (rat KCNK3/TASK-1): 160 nM
- MV DMV ([3]; Table 8, 1 mpk, 15/65/20, pH 5): 89
- MV MPR ([3]; Table 8, 1 mpk, 15/65/20, pH 5): 167
- MV DMV [3, 7]: 83
- MV MPR [3, 7]: 175
- IC50 (human KCNK9/TASK-3): > 30000 nM

- IC50 (rat KCNK3/TASK-1): 220 nM
- IC50 (human KCNK9/TASK-3): > 30000 nM
Structure (SMILES): CCCNc1cc(N(C)OC)nc(NCCC)n1 [CXXI, 2,6-Bis-(N-n-propylamino)-[1,3]pyrimidin-4-yl)-N,O-dimethyl-hydroxylamine hydrogen sulfate]
- minute ventilation, dose dependence [4]: increase minute ventilation in a dose-dependent manner

Structure (SMILES): CCCNc1nc(NCCC)nc(N(C)NC)n1.O=S(=O)(O)O [L, N-(4,6-Bis-n-propylamino-[1,3,5]triazin-2-yl)-N,N′-dimethyl-hydrazine hydrogen sulfate]
- ED50 ([4]; Rattus norvegicus, cumulative IV doses 0.01-10 mg/kg, read-out: ED50, maximum peak minute ventilation): 0.13 mg/kg
- minute ventilation, dose dependence [4]: increased minute ventilation in a dose-dependent manner
- effects of opioid on blood gases and pH (pH, SaO2, pO2, pCO2) [5]: reverse the effects of opioid on blood gases and pH

- IC50 (rat KCNK3/TASK-1): 600 nM
- IC50 (human KCNK9/TASK-3): > 30000 nM
Structure (SMILES): CCCNc1nc(NCCC)nc(NN(C)C)n1 [XLVI, N-(4,6-Bis-n-propylamino-[1,3,5]triazin-2-yl)-N′,N′-dimethylhydrazine]

Structure (SMILES): CCNc1nc(NCC)nc(N(C)OC)n1 [XXII, N-(4,6-Bis-ethylamino-[1,3,5]triazin-2-yl)-N,O-dimethyl-hydroxylamine hydrochloride]
- MV MPR ([3]; 1 mpk IV, 20% HPβCD, pH 4-6): 252
- MV ΔMV ([3]; 1 mpk IV, 20% HPβCD, pH 4-6): 130

Structure (SMILES): CON(C)c1nc(NCC(C)C)nc(NCC(C)C)n1 [XXIX, N-(Bis-4,6-(2-methylpropylamino)) [1,3,5]triazin-2-yl)-N,O-dimethyl-hydroxylamine hydrochloride]
- MV MPR ([3]; 1 mpk IV, 20% HPβCD, pH 4-6): 253
- MV ΔMV ([3]; 1 mpk IV, 20% HPβCD, pH 4-6): 161

- solubility [6]: ~210 µg/mL
Structure (SMILES): CCCNc1nc(NCC2CC2)nc(N(C)OC)n1 [XXV, N-(4-Cyclopropylmethyl)-N-(6-n-propylamino) [1,3,5]triazin-2-yl)-N,O-dimethyl-hydroxylamine hydrochloride]
- MV MPR ([3]; 1 mpk IV, 20% HPβCD, pH 4-6): 257
- MV ΔMV ([3]; 1 mpk IV, 20% HPβCD, pH 4-6): 126

Structure (SMILES): CON(C)c1nc(NC2CC2)nc(NC2CC2)n1 [XXXIII, 4,6-Bis-N-cyclopropylamino-[1,3,5]triazin-2-yl)-N,O-dimethyl-hydroxylamine hydrochloride]
- MV MPR ([3]; 1 mpk IV, 20% HPβCD, pH 4-6): 147
- MV ΔMV ([3]; 1 mpk IV, 20% HPβCD, pH 4-6): 53

Structure (SMILES): CON(C)c1nc(NCC(C)(C)C)nc(NCC(C)(C)C)n1.Cl [XXXI]
- MV DMV [3, 7]: 43
- MV MPR [3, 7]: 140
